Data from US20220280578A1, “METHOD FOR TREATING ALZHEIMER'S DISEASE BY REGULATING INTESTINAL MICROORGANISMS” (SHANGHAI GREEN VALLEY PHARMACEUTICAL CO., LTD., priority 2019, published 2022).
“Also recorded” adds a separate entry of the source.

Legend:
naive CD4+ T cells = assay: In vitro differentiation and proliferation induced by phenylalanine and isoleucine; type: cell-based, mouse; conditions: amino acid added directly to naive CD4+ T cell culture; for Th1 cell proliferation: CellTrace
Protocol: In Vitro differentiation and proliferation induced by phenylalanine and isoleucine. Naive CD4^+ T cells were separated from the splenocytes of 8-month-old C57BL/6 female mice using the Naive CD4^+ T cell Isolation Kit (Stem Cell, #19765), and the cells were stained with CellTrace (Thermo Fisher, #C34557). A total of 1×10^5 cells/well in 0.2 mL of RPMI-1640 medium were plated in 96-well plates, and the culture medium was supplemented with cytokines or blocking antibodies. Th0: 10 ng/mL mIL-2; Th1:10 ng/mL mIL-2, 5000 ng/mL 11B11. Phenylalanine (final concentration, 2 mmol/L), isoleucine (final concentration, 2 mmol/L) and OM1 (final concentration, 100 μg/mL) were added into the indicated wells, respectively. After incubation at 37° C. in 5% CO2 for 5 days, cells were acquired on a BD Fortessa cytometer, and data were analyzed using FlowJo software.

WT mice (C57) = assay: Intraperitoneal injection of phenylalanine and isoleucine, blood Th1 cells; type: in vivo, mouse; conditions: intraperitoneal injection 50 mg/kg for 4 days
5XFAD mice = assay: JPH 203 in 5XFAD mice, Th1 cells in the brain by flow cytometry; type: in vivo, mouse; conditions: 6-month-old 5XFAD mice, 50 mg/kg intraperitoneal every day for one month, vs vehicle
Source text: Flow cytometry sample preparation and analysis. Mice were anesthetized, blood samples were collected into EDTA-containing tubes, and red blood cells were removed using 1×red blood lysis buffer. Before tissue is collection, the brains were perfused with ice-cold PBS to avoid sampling the circulating blood immune cells, and the brains were removed, chopped into pieces and dissected according to the introduction of the Adult Brain Dissociation Kit (Miltenyi, Cat No. 130-107-677) using the gentleMACS dissociator (Miltenyi Biotec). The brain homogenate was filtered through a 70-μm cell strainer and centrifuged at 300×g for 5 min at 4° C. […] All samples were counted and adjusted to a density of 2-3 ×10^6/100 μL, labeled with a Live/Dead kit for 30 min, and then centrifuged at 500×g for 3 min at 4° C. […] Relevant negative control, Fluorescence Minus One (FMO) control and each fluorescence compensation sample were used to adjust fluorescence compensation and identify the populations of interest. Cells were acquired on a BD Aria III cytometer, and data were analyzed using FlowJo software.
Amino acids could be taken by immune cells through specific transporters. […] One month after the administration, the mice were euthanized, and the proportion of pro-inflammatory Th 1 cells in the brains of the mice in the control group and the JPH 203 treatment group was analyzed by flow cytometry. […]

SLC7A5 = target: T1, SLC7A5 (Mus musculus, UniProt Q9Z127); assay: Uptake of 13C-labelled phenylalanine by CD4+ T cells; type: cell-based; conditions: 0.5 h incubation
T1 construct: endogenous in cells; host or cells: Primary naive CD4+ T cells from splenocytes of C57BL/6 mice, used as Th0 cells and IL-12-induced Th1 cells
T1 sequence (Q9Z127 whole entry): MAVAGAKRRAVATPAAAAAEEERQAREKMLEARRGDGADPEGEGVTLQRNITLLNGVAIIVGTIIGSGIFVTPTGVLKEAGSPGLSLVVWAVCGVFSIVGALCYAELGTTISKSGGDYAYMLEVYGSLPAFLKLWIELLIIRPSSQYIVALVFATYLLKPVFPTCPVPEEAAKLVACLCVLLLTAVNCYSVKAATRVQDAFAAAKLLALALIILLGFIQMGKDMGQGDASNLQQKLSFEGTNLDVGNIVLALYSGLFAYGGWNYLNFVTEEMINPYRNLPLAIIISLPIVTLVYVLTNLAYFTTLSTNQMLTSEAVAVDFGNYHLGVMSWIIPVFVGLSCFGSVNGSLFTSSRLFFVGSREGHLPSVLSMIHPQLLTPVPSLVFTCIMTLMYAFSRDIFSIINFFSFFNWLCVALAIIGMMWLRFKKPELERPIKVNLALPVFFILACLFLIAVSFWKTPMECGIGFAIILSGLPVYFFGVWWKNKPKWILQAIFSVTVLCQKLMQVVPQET
T1 sequence (P10852 whole entry partner): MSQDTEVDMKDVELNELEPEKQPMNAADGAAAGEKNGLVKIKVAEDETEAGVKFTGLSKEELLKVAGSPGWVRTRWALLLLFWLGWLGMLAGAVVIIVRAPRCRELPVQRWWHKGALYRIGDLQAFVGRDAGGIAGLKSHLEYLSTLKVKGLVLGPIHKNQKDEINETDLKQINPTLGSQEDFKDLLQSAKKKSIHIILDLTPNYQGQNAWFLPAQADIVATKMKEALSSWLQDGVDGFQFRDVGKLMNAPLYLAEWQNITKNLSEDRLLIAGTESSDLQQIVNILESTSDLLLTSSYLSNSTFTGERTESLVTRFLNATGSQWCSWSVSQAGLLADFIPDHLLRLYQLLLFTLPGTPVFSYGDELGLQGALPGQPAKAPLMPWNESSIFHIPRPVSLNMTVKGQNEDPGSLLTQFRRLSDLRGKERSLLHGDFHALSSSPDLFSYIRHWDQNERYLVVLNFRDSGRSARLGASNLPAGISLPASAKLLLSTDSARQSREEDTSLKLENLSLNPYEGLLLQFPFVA
Protocol: Uptake of phenylalanine. Naive CD4^+ T cells were separated from the is splenocytes of 8-month-old C57BL/6 female mice using the Naive CD4^+ T cell Isolation Kit (Stem Cell, Cat No. 19765) and were induced to Th1 differentiation by 20 ng/mL IL-12. After 3 days, a total of 5×10^5 cells/well Th1 cells and Th0 cells in 0.5 mL of RPMI-1640 medium were plated into 48-well plates. ^13C-labelled phenylalanine and 5 mM amino transporter inhibitor BCH were added into indicated wells. After 0.5 h, cells were collected and washed twice with ice-cold D-PBS. 50 μL deionized water was added and cells were lysed through freezing and thawing twice at −80° C. The cell lysate was centrifuged at 12000×g for 10 min and ^13C-labelled phenylalanine in the supernatant was analyzed by Mass spectrometry.

Compound	Th0 cell differentiation into Th1 cells (naive CD4+ T cells)	Th1 cell proliferation (naive CD4+ T cells)	Th1 cell count in the blood (WT mice (C57))	proportion of pro-inflammatory Th1 cells in the mouse brain (5XFAD mice; 50 mg/kg)	proportion of pro-inflammatory Th1 cells in the mouse brain (5XFAD mice; listed as JPH 203, 50 mg/kg)	uptake of 13C-labelled phenylalanine by CD4+ T cells (SLC7A5)
N[C@@H](Cc1ccccc1)C(=O)O [phenylalanine]	increased	increased	increased significantly	–	–	–
CC[C@H](C)[C@H](N)C(=O)O [isoleucine]	increased	increased	increased significantly	–	–	–
Nc1cc(COc2c(Cl)cc(C[C@H](N)C(=O)O)cc2Cl)c2oc(-c3ccccc3)nc2c1 [JPH203]	–	–	–	effectively inhibits; also recorded: significantly downregulated	significantly reduces	blocked
